From ChEMBL document CHEMBL3991601, “The target landscape of clinical kinase drugs” (Science, 2017)
Active and inactive are the calls of the source. Rule as the data show it, for most assays here: actives have a measured Kd and inactives only a lower limit.

How the values were obtained:
[1] = molecular target: MAP kinase-activated protein kinase 2 (Homo sapiens, UniProt P49137)
[2] = molecular target: T1, Mitogen-activated protein kinase kinase kinase 3 (Homo sapiens, UniProt Q99759)
T1 sequence (Q99759 whole entry): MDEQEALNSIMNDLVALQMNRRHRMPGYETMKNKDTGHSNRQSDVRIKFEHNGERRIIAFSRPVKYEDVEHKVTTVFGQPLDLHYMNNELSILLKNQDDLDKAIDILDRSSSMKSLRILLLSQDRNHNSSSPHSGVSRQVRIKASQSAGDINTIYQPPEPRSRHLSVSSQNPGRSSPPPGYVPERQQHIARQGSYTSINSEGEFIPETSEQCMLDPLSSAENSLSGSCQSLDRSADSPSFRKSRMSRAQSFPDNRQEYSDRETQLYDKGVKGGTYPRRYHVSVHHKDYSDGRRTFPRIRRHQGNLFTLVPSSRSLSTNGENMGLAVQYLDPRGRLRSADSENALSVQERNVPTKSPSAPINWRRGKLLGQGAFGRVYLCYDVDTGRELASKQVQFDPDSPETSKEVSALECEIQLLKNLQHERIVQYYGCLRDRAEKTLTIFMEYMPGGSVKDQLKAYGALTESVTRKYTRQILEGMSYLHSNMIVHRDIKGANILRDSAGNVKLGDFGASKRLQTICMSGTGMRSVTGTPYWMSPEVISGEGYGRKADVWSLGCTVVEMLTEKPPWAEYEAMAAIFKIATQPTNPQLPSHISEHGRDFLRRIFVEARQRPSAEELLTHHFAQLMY

[3] = molecular target: T2, AarF domain-containing protein kinase 1 (Homo sapiens, UniProt Q86TW2)
T2 sequence (Q86TW2 whole entry): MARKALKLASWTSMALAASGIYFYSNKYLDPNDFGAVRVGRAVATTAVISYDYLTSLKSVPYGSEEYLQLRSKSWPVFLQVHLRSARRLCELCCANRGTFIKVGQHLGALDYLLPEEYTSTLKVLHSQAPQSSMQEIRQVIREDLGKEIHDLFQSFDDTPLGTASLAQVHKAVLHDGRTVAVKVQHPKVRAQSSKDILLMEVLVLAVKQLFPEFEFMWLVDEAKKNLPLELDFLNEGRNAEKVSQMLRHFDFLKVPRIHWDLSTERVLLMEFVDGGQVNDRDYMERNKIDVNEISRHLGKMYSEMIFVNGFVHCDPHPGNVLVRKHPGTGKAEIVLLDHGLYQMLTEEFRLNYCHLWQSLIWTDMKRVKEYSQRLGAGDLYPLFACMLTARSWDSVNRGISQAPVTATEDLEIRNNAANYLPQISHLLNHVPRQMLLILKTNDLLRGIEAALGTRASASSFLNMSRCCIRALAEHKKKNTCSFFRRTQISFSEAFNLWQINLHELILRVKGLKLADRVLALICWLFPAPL

[4] = molecular target: T3, Serine/threonine-protein kinase 4 (Homo sapiens, UniProt Q13043)
T3 sequence (Q13043 whole entry): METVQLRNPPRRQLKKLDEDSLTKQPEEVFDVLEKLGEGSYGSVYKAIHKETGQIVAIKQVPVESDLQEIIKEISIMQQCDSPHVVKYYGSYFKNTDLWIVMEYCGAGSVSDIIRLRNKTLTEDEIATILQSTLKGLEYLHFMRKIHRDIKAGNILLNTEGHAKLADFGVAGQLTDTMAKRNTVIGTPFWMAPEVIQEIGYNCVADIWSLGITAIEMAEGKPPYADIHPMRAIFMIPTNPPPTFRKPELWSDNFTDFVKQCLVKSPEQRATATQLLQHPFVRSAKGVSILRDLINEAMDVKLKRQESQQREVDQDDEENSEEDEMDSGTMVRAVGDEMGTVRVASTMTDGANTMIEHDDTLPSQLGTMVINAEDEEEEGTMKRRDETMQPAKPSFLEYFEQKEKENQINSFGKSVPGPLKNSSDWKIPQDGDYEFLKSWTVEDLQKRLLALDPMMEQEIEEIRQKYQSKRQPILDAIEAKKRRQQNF

[5] = molecular target: Protein kinase C delta type (Homo sapiens, UniProt Q05655)
[6] = molecular target: Cyclin-dependent kinase 4 (Homo sapiens, UniProt P11802)
[7] = molecular target: Ribosomal protein S6 kinase alpha-1 (Homo sapiens, UniProt Q15418)
[8] = molecular target: Cyclin-dependent kinase 6 (Homo sapiens, UniProt Q00534)
dCTP pyrophosphatase 1 = molecular target: T4, dCTP pyrophosphatase 1 (Homo sapiens, UniProt Q9H773)
T4 sequence (Q9H773 whole entry): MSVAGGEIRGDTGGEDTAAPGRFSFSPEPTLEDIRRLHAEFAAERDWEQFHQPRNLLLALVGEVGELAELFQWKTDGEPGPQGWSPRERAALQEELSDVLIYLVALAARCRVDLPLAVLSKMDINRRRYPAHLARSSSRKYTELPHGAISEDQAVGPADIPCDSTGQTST

[9] = molecular target: Glycogen synthase kinase-3 beta (Homo sapiens, UniProt P49841)
[10] = molecular target: DnaJ homolog subfamily A member 1 (Homo sapiens, UniProt P31689)
[11] = molecular target: Serine/threonine-protein kinase pim-1 (Homo sapiens, UniProt P11309)
[12] = molecular target: T5, Phenylalanine--tRNA ligase beta subunit (Homo sapiens, UniProt Q9NSD9)
T5 sequence (Q9NSD9 whole entry): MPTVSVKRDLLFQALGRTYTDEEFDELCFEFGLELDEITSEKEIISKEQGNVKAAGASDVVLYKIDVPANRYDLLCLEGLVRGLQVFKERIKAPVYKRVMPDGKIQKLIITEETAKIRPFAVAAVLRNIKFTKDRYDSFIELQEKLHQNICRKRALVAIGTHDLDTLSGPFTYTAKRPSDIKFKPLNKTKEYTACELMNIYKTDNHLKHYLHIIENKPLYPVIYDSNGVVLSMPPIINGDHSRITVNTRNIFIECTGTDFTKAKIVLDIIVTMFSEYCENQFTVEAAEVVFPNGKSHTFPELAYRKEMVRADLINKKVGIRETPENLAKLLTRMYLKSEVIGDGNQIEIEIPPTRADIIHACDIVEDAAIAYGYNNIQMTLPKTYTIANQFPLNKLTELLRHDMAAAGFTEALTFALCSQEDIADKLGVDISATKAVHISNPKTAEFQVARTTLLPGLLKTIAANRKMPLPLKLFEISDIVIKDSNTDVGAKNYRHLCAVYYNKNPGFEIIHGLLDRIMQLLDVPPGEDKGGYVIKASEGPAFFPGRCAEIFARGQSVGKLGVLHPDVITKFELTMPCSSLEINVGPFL
Also: in the data inactive means no Kd found up to 30 µM.

MAP kinase-activated protein kinase 2, sequence (P49137 whole entry): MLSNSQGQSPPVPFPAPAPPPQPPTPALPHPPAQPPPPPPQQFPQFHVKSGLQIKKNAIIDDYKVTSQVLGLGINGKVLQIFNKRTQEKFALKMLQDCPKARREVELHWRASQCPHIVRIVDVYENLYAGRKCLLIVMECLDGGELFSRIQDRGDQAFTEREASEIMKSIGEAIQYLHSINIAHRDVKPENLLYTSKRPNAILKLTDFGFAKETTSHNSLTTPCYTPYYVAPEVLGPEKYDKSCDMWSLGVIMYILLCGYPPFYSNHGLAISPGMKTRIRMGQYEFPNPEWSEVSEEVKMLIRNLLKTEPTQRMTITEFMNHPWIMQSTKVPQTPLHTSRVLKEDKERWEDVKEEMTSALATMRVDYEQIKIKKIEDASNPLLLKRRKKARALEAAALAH
Protein kinase C delta type, sequence (Q05655 whole entry): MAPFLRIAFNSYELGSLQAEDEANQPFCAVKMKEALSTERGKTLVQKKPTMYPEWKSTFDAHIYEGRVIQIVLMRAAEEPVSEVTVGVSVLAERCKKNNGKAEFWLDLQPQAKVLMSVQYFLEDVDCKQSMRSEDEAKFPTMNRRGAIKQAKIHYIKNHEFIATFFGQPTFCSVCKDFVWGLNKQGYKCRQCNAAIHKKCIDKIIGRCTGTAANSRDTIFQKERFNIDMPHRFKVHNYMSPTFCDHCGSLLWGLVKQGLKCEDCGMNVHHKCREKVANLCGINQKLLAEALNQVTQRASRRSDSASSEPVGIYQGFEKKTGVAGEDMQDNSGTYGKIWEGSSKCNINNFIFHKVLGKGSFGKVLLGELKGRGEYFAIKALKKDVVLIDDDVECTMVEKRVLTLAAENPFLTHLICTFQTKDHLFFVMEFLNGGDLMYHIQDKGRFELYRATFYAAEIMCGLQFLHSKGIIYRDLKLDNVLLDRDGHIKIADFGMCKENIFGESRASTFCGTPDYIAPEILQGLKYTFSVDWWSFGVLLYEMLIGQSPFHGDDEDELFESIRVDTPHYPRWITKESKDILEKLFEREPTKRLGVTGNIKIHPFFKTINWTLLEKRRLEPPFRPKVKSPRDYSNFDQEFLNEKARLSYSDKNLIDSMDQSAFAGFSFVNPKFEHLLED
DnaJ homolog subfamily A member 1, sequence (P31689 whole entry): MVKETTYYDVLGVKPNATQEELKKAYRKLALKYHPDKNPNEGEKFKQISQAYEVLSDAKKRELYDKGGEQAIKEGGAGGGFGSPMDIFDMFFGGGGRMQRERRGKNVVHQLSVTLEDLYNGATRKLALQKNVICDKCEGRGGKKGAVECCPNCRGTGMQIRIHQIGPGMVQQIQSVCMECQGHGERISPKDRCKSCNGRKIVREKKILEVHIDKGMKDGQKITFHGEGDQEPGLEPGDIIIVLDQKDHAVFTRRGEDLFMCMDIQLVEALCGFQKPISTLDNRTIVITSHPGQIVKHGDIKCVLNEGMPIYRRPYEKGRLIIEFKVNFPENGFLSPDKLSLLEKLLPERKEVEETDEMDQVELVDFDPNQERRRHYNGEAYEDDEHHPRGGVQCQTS
Cyclin-dependent kinase 4, sequence (P11802 whole entry): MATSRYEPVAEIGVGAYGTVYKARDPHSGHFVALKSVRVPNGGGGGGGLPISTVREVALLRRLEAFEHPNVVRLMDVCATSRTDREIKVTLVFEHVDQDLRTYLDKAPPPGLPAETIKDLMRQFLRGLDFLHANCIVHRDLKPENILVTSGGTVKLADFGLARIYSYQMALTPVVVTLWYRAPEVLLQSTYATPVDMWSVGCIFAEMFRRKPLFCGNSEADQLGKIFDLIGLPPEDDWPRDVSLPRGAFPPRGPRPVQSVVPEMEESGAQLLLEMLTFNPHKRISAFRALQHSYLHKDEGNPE
Ribosomal protein S6 kinase alpha-1, sequence (Q15418 whole entry): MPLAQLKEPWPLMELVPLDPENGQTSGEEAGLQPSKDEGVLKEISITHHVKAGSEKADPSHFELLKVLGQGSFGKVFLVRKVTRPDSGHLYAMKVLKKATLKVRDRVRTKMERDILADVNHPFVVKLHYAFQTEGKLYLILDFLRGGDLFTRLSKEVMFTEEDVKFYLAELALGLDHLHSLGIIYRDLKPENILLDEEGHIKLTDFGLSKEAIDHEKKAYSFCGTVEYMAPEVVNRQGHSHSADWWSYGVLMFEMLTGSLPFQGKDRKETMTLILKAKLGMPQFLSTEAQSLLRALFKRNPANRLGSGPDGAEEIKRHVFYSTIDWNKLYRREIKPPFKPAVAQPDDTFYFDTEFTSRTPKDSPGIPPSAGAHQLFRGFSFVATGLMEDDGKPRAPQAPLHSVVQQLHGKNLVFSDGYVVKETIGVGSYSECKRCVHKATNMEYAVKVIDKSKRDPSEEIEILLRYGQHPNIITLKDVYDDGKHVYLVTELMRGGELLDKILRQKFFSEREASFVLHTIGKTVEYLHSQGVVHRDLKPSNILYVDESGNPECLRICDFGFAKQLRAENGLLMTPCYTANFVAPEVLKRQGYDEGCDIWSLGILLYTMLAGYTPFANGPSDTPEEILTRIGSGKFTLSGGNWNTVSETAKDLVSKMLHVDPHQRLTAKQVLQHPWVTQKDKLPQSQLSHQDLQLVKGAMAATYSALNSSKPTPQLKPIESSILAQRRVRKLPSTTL
Cyclin-dependent kinase 6, sequence (Q00534 whole entry): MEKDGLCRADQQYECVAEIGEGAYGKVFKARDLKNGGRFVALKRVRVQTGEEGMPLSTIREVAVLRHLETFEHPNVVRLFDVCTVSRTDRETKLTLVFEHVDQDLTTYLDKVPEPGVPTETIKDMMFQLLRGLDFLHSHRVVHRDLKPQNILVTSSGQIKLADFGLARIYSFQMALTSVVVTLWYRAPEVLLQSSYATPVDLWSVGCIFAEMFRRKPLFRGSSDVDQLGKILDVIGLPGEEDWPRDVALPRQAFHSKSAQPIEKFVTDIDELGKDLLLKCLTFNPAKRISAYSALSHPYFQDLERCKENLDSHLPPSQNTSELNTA
Serine/threonine-protein kinase pim-1, sequence (P11309 whole entry): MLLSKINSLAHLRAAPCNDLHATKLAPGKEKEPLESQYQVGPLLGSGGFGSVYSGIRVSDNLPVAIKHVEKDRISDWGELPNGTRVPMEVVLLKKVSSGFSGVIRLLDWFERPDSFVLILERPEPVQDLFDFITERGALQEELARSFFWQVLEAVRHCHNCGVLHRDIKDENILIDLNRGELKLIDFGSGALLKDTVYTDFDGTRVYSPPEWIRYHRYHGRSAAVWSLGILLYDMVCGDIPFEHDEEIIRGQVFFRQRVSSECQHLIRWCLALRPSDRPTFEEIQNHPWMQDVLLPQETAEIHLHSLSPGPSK
Glycogen synthase kinase-3 beta, sequence (P49841 whole entry): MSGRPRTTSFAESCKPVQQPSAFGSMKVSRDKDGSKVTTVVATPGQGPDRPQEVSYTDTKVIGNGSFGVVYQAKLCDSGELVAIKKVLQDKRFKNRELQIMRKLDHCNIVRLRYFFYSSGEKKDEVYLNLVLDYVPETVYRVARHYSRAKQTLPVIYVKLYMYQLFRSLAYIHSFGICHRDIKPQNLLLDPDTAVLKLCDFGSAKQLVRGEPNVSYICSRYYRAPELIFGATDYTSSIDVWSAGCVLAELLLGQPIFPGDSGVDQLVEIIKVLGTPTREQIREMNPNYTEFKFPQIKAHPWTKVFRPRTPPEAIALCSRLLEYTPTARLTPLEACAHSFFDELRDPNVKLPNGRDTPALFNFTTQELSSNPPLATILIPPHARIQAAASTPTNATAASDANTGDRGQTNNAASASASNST

Row | Kd [1] | Kd [2] | Kd [3] | Kd [4] | Kd [5] | Kd [6] | Kd [7] | Kd [8] | Kd (dCTP pyrophosphatase 1) | Kd [9] | Kd [10] | Kd [11] | Kd [12] | Compound
1 | > 30 µM (inactive) | > 30 µM (inactive) | > 30 µM (inactive) | > 30 µM (inactive) | > 30 µM (inactive) | > 30 µM (inactive) | > 30 µM (inactive) | > 30 µM (inactive) | > 30 µM (inactive) | > 30 µM (inactive) | > 30 µM (inactive) | > 30 µM (inactive) | > 30 µM (inactive) | COc1cc(CCc2cc(NC(=O)c3ccc(N4C[C@@H](C)N[C@@H](C)C4)cc3)n[nH]2)cc(OC)c1 [AZD-4547]
2 | > 30 µM (inactive) | > 30 µM (inactive) | > 30 µM (inactive) | > 30 µM (inactive) | > 30 µM (inactive) | > 30 µM (inactive) | > 30 µM (inactive) | > 30 µM (inactive) | > 30 µM (inactive) | > 30 µM (inactive) | > 30 µM (inactive) | > 30 µM (inactive) | > 30 µM (inactive) | COc1cc(OC)c(/C=C/S(=O)(=O)Cc2ccc(OC)c(NCC(=O)O)c2)c(OC)c1 [RIGOSERTIB]
3 | 0.027 µM (active) | > 30 µM (inactive) | > 30 µM (inactive) | > 30 µM (inactive) | > 30 µM (inactive) | > 30 µM (inactive) | > 30 µM (inactive) | > 30 µM (inactive) | > 30 µM (inactive) | > 30 µM (inactive) | > 30 µM (inactive) | > 30 µM (inactive) | > 30 µM (inactive) | Cc1c(F)cc(C(=O)NC2CC2)cc1-c1ccc(C(=O)NCC(C)(C)C)cn1 [LOSMAPIMOD]
4 | > 30 µM (inactive) | > 30 µM (inactive) | > 30 µM (inactive) | > 30 µM (inactive) | > 30 µM (inactive) | > 30 µM (inactive) | > 30 µM (inactive) | > 30 µM (inactive) | > 30 µM (inactive) | > 30 µM (inactive) | > 30 µM (inactive) | > 30 µM (inactive) | > 30 µM (inactive) | CC[C@@H]1C(=O)N(C)c2cnc(Nc3ccc(C(=O)N[C@H]4CC[C@H](N5CCN(CC6CC6)CC5)CC4)cc3OC)nc2N1C(C)C [VOLASERTIB]
5 | > 30 µM (inactive) | > 30 µM (inactive) | > 30 µM (inactive) | > 30 µM (inactive) | > 30 µM (inactive) | > 30 µM (inactive) | > 30 µM (inactive) | > 30 µM (inactive) | > 30 µM (inactive) | > 30 µM (inactive) | > 30 µM (inactive) | > 30 µM (inactive) | > 30 µM (inactive) | COCCNCc1ccc(-c2cc3nccc(Oc4ccc(NC(=S)NC(=O)Cc5ccc(F)cc5)cc4F)c3s2)nc1 [GLESATINIB]
6 | > 30 µM (inactive) | > 30 µM (inactive) | > 30 µM (inactive) | > 30 µM (inactive) | > 30 µM (inactive) | > 30 µM (inactive) | > 30 µM (inactive) | > 30 µM (inactive) | > 30 µM (inactive) | > 30 µM (inactive) | > 30 µM (inactive) | > 30 µM (inactive) | > 30 µM (inactive) | CCn1c(=O)c(-c2cc[nH]n2)cc2c(C)nc(N)nc21 [VOXTALISIB]
7 | > 30 µM (inactive) | > 30 µM (inactive) | > 30 µM (inactive) | > 30 µM (inactive) | > 30 µM (inactive) | > 30 µM (inactive) | > 30 µM (inactive) | > 30 µM (inactive) | > 30 µM (inactive) | > 30 µM (inactive) | > 30 µM (inactive) | > 30 µM (inactive) | > 30 µM (inactive) | COc1ccc(-c2ccc3c(N4CCOC[C@@H]4C)nc(N4CCOC[C@@H]4C)nc3n2)cc1CO [AZD-8055]
8 | > 30 µM (inactive) | > 30 µM (inactive) | > 30 µM (inactive) | > 30 µM (inactive) | > 30 µM (inactive) | > 30 µM (inactive) | > 30 µM (inactive) | > 30 µM (inactive) | > 30 µM (inactive) | > 30 µM (inactive) | > 30 µM (inactive) | > 30 µM (inactive) | > 30 µM (inactive) | Cc1cc2c(F)c(Oc3ncnn4cc(OC[C@@H](C)OC(=O)[C@H](C)N)c(C)c34)ccc2[nH]1 [BRIVANIB ALANINATE]

Row | Compound | Kd [1] | Kd [2] | Kd [3] | Kd [4] | Kd [5] | Kd [6] | Kd [7] | Kd [8] | Kd (dCTP pyrophosphatase 1) | Kd [9] | Kd [10] | Kd [11] | Kd [12]
9 | Cc1ccc(-n2nc(C(C)(C)C)cc2NC(=O)NCc2cc(F)ccc2Oc2ccc3c(cnn3CCO)c2)cc1 [PEXMETINIB] | 0.067 µM (active) | > 30 µM (inactive) | > 30 µM (inactive) | > 30 µM (inactive) | > 30 µM (inactive) | > 30 µM (inactive) | > 30 µM (inactive) | > 30 µM (inactive) | > 30 µM (inactive) | > 30 µM (inactive) | > 30 µM (inactive) | > 30 µM (inactive) | > 30 µM (inactive)
